Laboratory results from US8754047B2, “Peptide compositions and methods of use” (The Research Foundation for the State University of New York, priority 2008, dated 2014).
Entries after “also recorded” stand apart in the source; their conditions may differ. Positions of bridges follow the written chain, without caps; N, C: chain ends. Residues, ends and D or L forms follow the SMILES beside them.

Legend:
[1] = tested on: MCF-7 human breast cancer cells; assay: Annexin V-FITC flow cytometry for apoptotic cells, MCF7; type: cell-based; conditions: 24 hrs, 0 μM to 200 μM
Procedure: (§1) SW480 human colon cancer cells and MCF7 breast cancer cells were grown following the instructions of American Type Culture Collection (ATCC, Monassas, Va.). The cells were treated with the test peptides (YJB01, YJB05, or YJB06) for 24 hrs at concentrations ranging from 0 μM, to 200 μM. After treatment, cells were trypsinized and stained with Annexin V-FITC (100× dilution) for 15 minutes. Annexin V-FITC fluorescence intensities were analyzed by FACSCaliber (BD Bioscience) following standard protocols. Annexin V (+) cells are apoptotic cells.
When cells undergo apoptosis, the inner membrane phospholipid, phosphotidylserine (PS), flips to the outer membrane and can be recognized by the […]. The green FITC fluorescence can be determined by flow cytometry and thus Annexin V (+) cells are apoptotic cells.
as §1, with “In this study, SW480” for “SW480”, “human” for “human colon”, “treatment” for “treatment,”, “protocols.” for “protocols. Annexin V (+) cells are apoptotic cells.”

thioredoxin 1 = molecular target: T1, thioredoxin 1 (Homo sapiens, UniProt P10599); assay: Thioredoxin 1 redox state, native PAGE immunoblot in SW480 cells; type: cell-based; conditions: YJB01 20 μM and 100 μM, YJB05 100 μM
T1 construct: endogenous in cells; host or cells: SW480 human colon cancer cells
T1 sequence (P10599 1-105): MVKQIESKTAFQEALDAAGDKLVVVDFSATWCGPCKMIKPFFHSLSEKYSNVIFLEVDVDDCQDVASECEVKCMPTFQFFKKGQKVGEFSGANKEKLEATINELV
Procedure: (§2) SW480 human colon cancer cells were grown following the instructions of American Type Culture Collection (ATCC, Monassas, Va.). Cells were treated with either no peptide, with YBJ01 (at 20 μM and 100 μM), or with YBJ05 (at 100 μM). 10^6 cells were lysed in 6 mol/L guanidinium chloride, 50 mmol/L Tris/HCL (pH 8.3), 3 mmol/L EDTA, and 0.5% Triton-X-100 containing 50 mmol/L iodoacetic acid. After 30 min at 37° C., the excess idoacetic acid was removed using Microspin G-25 columns (GE Healthcare Life Sciences). Oxidized and reduced thioredxoin was separated by native PAGE. The gel was electroblotted onto a nitrocellulose membrane and probed with thioredoxin antibodies, followed by HRP-conjugated secondary antibody. Bands corresponding to thioredoxin were visualized by ECL.
as §2, with “10^6 cells from each sample were lysed” for “10^6 cells were lysed”, “native PAGE. […]” for “native PAGE. The gel was electroblotted onto a nitrocellulose membrane and probed with thioredoxin antibodies, followed by HRP-conjugated secondary antibody. Bands corresponding to thioredoxin were visualized by ECL.”

peroxiredoxin 1 = assay: Oxidized peroxiredoxin 1 (Prx-O3) immunoblot in SW480 cells; type: cell-based, human; conditions: 1 h, YJB01 20 μM and 100 μM, YJB05 100 μM
Procedure: (§3) The oxidized peroxiredoxin 1 (sulphonic-peroxiredoxin, Prx-O3) was detected by using the specific anti-Prx-O3 antibody. Briefly, after SW480 cells were treated with either no peptide, with YBJ01 (at 20 μM and 100 μM), or with YJB05 (at 100 μM) for 1 h, total cell lysates were collected and separated on the SDS-PAGE gel. The gel was electroblotted onto a nitrocellulose membrane and probed with anti-Prx-O3, followed by HRP-conjugated secondary antibody. Bands corresponding to sulphonic-peroxiredoxin were visualized by ECL
as §3, with “anti-Prx-O3 antibody” for “anti-Prx-O3 antibody.”, “with YBJ05” for “with YJB05”

[2] = tested on: SW480 human colon cancer xenografts; assay: SW480 human colon cancer xenografts in nude mice, tumor volume; type: in vivo; conditions: for reduction in tumor volume: vs vehicle
Procedure: (§4) Xenografts were generated as described in FIG. 3A-B and Example 3 except where noted. Each animal had two xenografts, one on its right flank and one on the left. In these studies, the effect of two doses of YJB01, 100 μg and 500 μg per animal were evaluated. The doses were administrated intraperitoneally once a day dissolved in phosphate buffered saline (PBS). Control animals were injected with PBS. Tumor volume was determined as described in Example 3. Tumor volume is expressed as mean±SEM.
as §4, with “the” for “FIG. 3A-B and”
Xenografts were generated as described in the Example 3 except that 8 Balb/c nude mice in each group were used in this experiment. Nude mice bearing SW480 xenografts were treated with 500 μg/day of YJB02 for 19 days. The doses were administrated intraperitoneally once a day dissolved in phosphate buffered saline (PBS). Control animals were treated with PBS.
Tumor volume was determined as described in Example 3. Tumor volume was monitored and graphed as set forth in FIG. 9A, and is expressed as mean±SEM.

[3] = 500 μg intraperitoneally once a day for 10 days

With CC[C@H](C)[C@H](NC(=O)[C@H](CCCCN)NC(=O)[C@@H](NC(=O)[C@H](CCC(N)=O)NC(=O)[C@H](CCCNC(=N)N)NC(=O)[C@@H]1CCCN1C(=O)[C@H](CCCCN)NC(=O)[C@@H]1CSSC[C@H](NC(=O)[C@H](Cc2c[nH]c3ccccc23)NC(=O)[C@@H](NC(=O)[C@H](C)N)[C@@H](C)O)C(=O)NCC(=O)N2CCC[C@H]2C(=O)N1)[C@@H](C)CC)C(=O)N[C@@H](Cc1c[nH]c2ccccc12)C(=O)N[C@@H](Cc1ccccc1)C(=O)N[C@@H](CCC(N)=O)C(=O)N[C@@H](CC(N)=O)C(=O)N[C@@H](CCCNC(=N)N)C(=O)N[C@@H](CCCNC(=N)N)C(=O)N[C@@H](CCSC)C(=O)N[C@@H](CCCCN)C(=O)N[C@@H](Cc1c[nH]c2ccccc12)C(=O)N[C@@H](CCCCN)C(=O)N[C@@H](CCCCN)C(=O)O [YJB01] (H-ATWCGPCKPRQIKIWFQNRRMKWKK-OH; disulfide 4-7; N-terminus and C-terminus assumed) the “apoptosis, Annexin V (+) cells, MCF7” value [1] was “cell killing effect”, the “induction of the oxidized form of thioredoxin 1” value (thioredoxin 1) was “induces the oxidized form of thioredoxin 1; also recorded: capable of inducing oxidation” and the “induction of the oxidized form of peroxiredoxin 1” value (peroxiredoxin 1) was “induced the oxidized form of peroxiredoxin; also recorded: capable of inducing oxidation”. For the same molecule, the “reduction in tumor volume” value ([2]; 100 μg intraperitoneally once a day for 21 days) was 32%, the tumor volume ([2]; 100 μg intraperitoneally once a day for 21 days, vehicle 776 mm^3) was 527 mm^3 and the “tumor volume compared to its baseline” value [2, 3] was “caused tumor regression”. For the same molecule, the “reduction in tumor volume” value [2, 3] was 60% and the tumor volume ([2]; 500 μg intraperitoneally once a day for 10 days, vehicle 257 mm^3) was 102 mm^3.
